In patent EP0252983B1, “SALTS OF N-(VINYLOXIETHYL)DITHIOCARBAMIC ACID, METHOD OF OBTAINING THEREOF AND […] ON THEM” (priority 1985, dated 1987):

Key:
Acremonium charticola = assay: Mycelial growth inhibition on agar (contact activity); type: cell-based; conditions: Würzeagar
Method: (§1) Die Prüfungen werden nach dem Verfahren zur Ermittlung der Kontaktaktivität durchgeführt. Man verwendet das in Wasser gelöste Kalium-N-(vinyloxyäthyl)dithiocarbamat, führt es in ein Nährmedium ein und vergießt auf Petri-Schalen. Nach 24 Stunden wird mit Pilzmyzelium nach einem Stichverfahren geimpft. Dann temperiert man die Schalen innerhalb von 5 Tagen bei einer zwischen 24 und 26 °C liegenden Temperatur und mißt den Durchmesser von Pilzkolonien, ermittelt den Prozentsatz der Hemmung des Myzelwachstums (S) ausgehend von Angaben am 5. Tag nach der Abbott-Formel [drawing 13] worin dc für den Durchmesser der Pilzkolonien, de für den Durchmesser von Pilzkolonien in der Schale stehen, wo ein die zu prüfenden Stoffe enthaltendes Medium vorhanden ist. Dieses Verfahren zur Ermittlung der mikrobiologischen Aktivität ist in anderen Beispielen verwendet.
(§2) Die Pilzkulturen werden auf Würzeagar gezüchtet. Ergebnisse, erhalten bei der Prüfung der fungiziden Aktivität gegen reine Kulturen von Mikroorganismen, welche Bioschädigungen hervorrufen, sind in der Tabelle 1 dargestellt.

Acremonium cowum = assay: as above; type: cell-based; conditions: Würzeagar
Method: as §1, §2

[1] = test system: Cladosporium cladosporioides; assay: as above; type: cell-based; conditions: Würzeagar
Method: as §1, §2

Cladosporium resinae = assay: as above; type: cell-based; conditions: Würzeagar
Method: as §1, §2

Geotrichum candidum Link = assay: as above; type: cell-based; conditions: Würzeagar
Method: as §1, §2

Oidium Sp. = assay: as above; type: cell-based; conditions: Würzeagar
Method: as §1, §2

Penicillium charlesii = assay: as above; type: cell-based; conditions: Würzeagar
Method: as §1, §2

Penicillium chrysogenum = assay: as above; type: cell-based; conditions: Würzeagar
Method: as §1, §2

Walrotiela subiculesa = assay: as above; type: cell-based; conditions: Würzeagar
Method: as §1, §2

Fusarium moniliforme = assay: as above; type: cell-based; conditions: concentration not given
Method: as §1
(§3) Tabelle 2 zeigt die Angaben für die fungizide Aktivität von Kalium-N-(vinyloxyäthyl)dithiocarbamat und bekannten wirksamen Fungiziden Poly arbazin und TMTD. Der zu prüfende Stoff wurde im Laufe der Versuche in Wasser aufgelöst, und die Kulturen wurden auf einem Kartoffel-Glukose-Nährmedium gezüchtet.

Fusarium sambucinum = assay: as above; type: cell-based; conditions: concentration not given
Method: as §1, §3

Aspergillus niger = assay: as above; type: cell-based; conditions: concentration not given
Rhizoctonia solani = assay: as above; type: cell-based; conditions: concentration not given
Method: as §1
Die fungizide Aktivität von Zink-bis-(N-vinyloxyäthyldithiocarbamat) gegen reine Kulturen von Pilzen Fusarium moniliforme, Fusarium sambucinum, Aspergillus niger, Rhizoctonia solani, Cladosporium resinae, Cladosporium cladosporioides, Acremonium cowum, Acremonium charticola, Penicillium chrysogenum, Penicillium charlesii Smith, Penicillium funiculosum, Geotrichum candidum Link, Walrotiela subiculesa, Oidium sp., Paecilomyces varioti, Stereum hirsutum wird gemäß Beispiel 8 untersucht.
(§4) Als Nährmedium dient Würzeagar.

Sphaeropsis malorum = assay: as above; type: cell-based; conditions: concentration not given
Method: as §1, §4

Xantomonas malvacearum = assay: Bacterial growth inhibition; type: cell-based; conditions: concentration not given
Psoroptes cuniculi = assay: Acaricidal activity on isolated mites; type: in vivo
Method: Die akarizide Aktivität der Stoffe wird an isolierten Milben Psoroptes cuniculi als Erreger der Psoroptesräude bei Kaninchen geprüft. Von frischen Verkrustungen von Kaninchen mit Psoroptesräude, werden zu diesem Zweck 50 Milbenexemplare (Larven, Nymphen, Imago) gewählt und in Petri-Schalen auf ein Filterpapierblatt übertragen. Dann bringt man auf Milben und die ganze Blattoberfläche 1,5 ml zu prüfende wäßrige Stofflösung in destilliertem Wasser auf. Die Schale wird mit Deckel verschlossen und in einen Thermostat bei 30 °C und Feuchtegehalt von 90 % angeordnet. Der Wirkstoff wird als wäßrige Lösung mit einer zwischen 0,0039 und 4 % liegenden Konzentration genommen. Als Vergleichsmuster dient gleichzeitig eine wäßrige Lösung von Chlorophos. Milben werden im Kontrollversuch (Kontrolle auf Lebensfähigkeit)mit 1,5 ml physiologischer Lösung behandelt und in einen anderen Thermostat unter gleichen Temperatur- und Feuchtigkeitsbedingungen aufgestellt.
Nach 1, 2, 4, 6 Stunden und alle 24 Stunden betrachtet man die Milben im Mikroskop und zählt die toten Milben. Aufgrund der Milbenvernichtung durch einen 24-stündigen Kontakt mit dem Wirkstoff ermittelt man die LK-50 Werte. Die Versuche werden 5mal wiederholt. Arithmetische Mittelwerte gibt Tabelle 14 an.

[2] = Acute toxicity (LD50) in mice; type: in vivo, weißen Mäusen; conditions: mouse, in vivo, ip; intraabdominale Applikation an weißen Mäusen; read-out: LD50
[3] = Solubility in water (descriptive); type: physicochemical
[4] = Storage stability (descriptive); type: physicochemical

C=COCCNC(=S)S [Natrium-N-(vinyloxyäthyl)dithiocarbamat]
Myzelhemmung in % (Acremonium charticola; Präparatkonzentration 0,0015 %): 100%
Myzelhemmung in % (Acremonium charticola; Präparatkonzentration 0,003 %): 100%
Myzelhemmung in % (Acremonium charticola; Präparatkonzentration 0,006 %): 100%
Myzelhemmung in % (Acremonium charticola; Präparatkonzentration 0,012 %): 100%
Myzelhemmung in % (Acremonium cowum; Präparatkonzentration 0,0015 %): 100%
Myzelhemmung in % (Acremonium cowum; Präparatkonzentration 0,003 %): 100%
Myzelhemmung in % (Acremonium cowum; Präparatkonzentration 0,006 %): 100%
Myzelhemmung in % (Acremonium cowum; Präparatkonzentration 0,012 %): 100%
Myzelhemmung in % ([1]; Präparatkonzentration 0,0015 %): 100%
Myzelhemmung in % ([1]; Präparatkonzentration 0,003 %): 100%
Myzelhemmung in % ([1]; Präparatkonzentration 0,006 %): 100%
Myzelhemmung in % ([1]; Präparatkonzentration 0,012 %): 100%
Myzelhemmung in % (Cladosporium resinae; Präparatkonzentration 0,0015 %): 90%
Myzelhemmung in % (Cladosporium resinae; Präparatkonzentration 0,003 %): 100%
Myzelhemmung in % (Cladosporium resinae; Präparatkonzentration 0,006 %): 100%
Myzelhemmung in % (Cladosporium resinae; Präparatkonzentration 0,012 %): 100%
Myzelhemmung in % (Geotrichum candidum Link; Präparatkonzentration 0,0015 %): 5%
Myzelhemmung in % (Geotrichum candidum Link; Präparatkonzentration 0,003 %): 40%
Myzelhemmung in % (Geotrichum candidum Link; Präparatkonzentration 0,006 %): 75%
Myzelhemmung in % (Geotrichum candidum Link; Präparatkonzentration 0,012 %): 100%
Myzelhemmung in % (Oidium Sp.; Präparatkonzentration 0,0015 %): 60%
Myzelhemmung in % (Oidium Sp.; Präparatkonzentration 0,003 %): 100%
Myzelhemmung in % (Oidium Sp.; Präparatkonzentration 0,006 %): 100%
Myzelhemmung in % (Oidium Sp.; Präparatkonzentration 0,012 %): 100%
Myzelhemmung in % (Penicillium charlesii; Präparatkonzentration 0,0015 %): 25%
Myzelhemmung in % (Penicillium charlesii; Präparatkonzentration 0,003 %): 40%
Myzelhemmung in % (Penicillium charlesii; Präparatkonzentration 0,006 %): 90%
Myzelhemmung in % (Penicillium charlesii; Präparatkonzentration 0,012 %): 100%
Myzelhemmung in % (Penicillium chrysogenum; Präparatkonzentration 0,0015 %): 5%
Myzelhemmung in % (Penicillium chrysogenum; Präparatkonzentration 0,003 %): 20%
Myzelhemmung in % (Penicillium chrysogenum; Präparatkonzentration 0,006 %): 80%
Myzelhemmung in % (Penicillium chrysogenum; Präparatkonzentration 0,012 %): 100%
Myzelhemmung in % (Walrotiela subiculesa; Präparatkonzentration 0,0015 %): 100%
Myzelhemmung in % (Walrotiela subiculesa; Präparatkonzentration 0,003 %): 100%
Myzelhemmung in % (Walrotiela subiculesa; Präparatkonzentration 0,006 %): 100%
Myzelhemmung in % (Walrotiela subiculesa; Präparatkonzentration 0,012 %): 100%
unterdrückt das Wachstum des Myzeliums der Pilze (Fusarium moniliforme): 100%
unterdrückt das Wachstum des Myzeliums der Pilze (Fusarium sambucinum): 100%
unterdrückt das Wachstum des Myzeliums der Pilze (Aspergillus niger): 100%
unterdrückt das Wachstum des Myzeliums der Pilze (Rhizoctonia solani): 100%
unterdrückt das Wachstum des Myzeliums der Pilze (Sphaeropsis malorum): 100%
unterdrückt das Wachstum von Bakterien (Xantomonas malvacearum): 33%
LK-50 % (Psoroptes cuniculi; 24-stündiger Kontakt mit dem Wirkstoff): 0,0022%
Vernichtung von 100 % der Milben nach Stunden (Psoroptes cuniculi; Konzentration 0,0039 %): 48 Stunden
Vernichtung von 100 % der Milben nach Stunden (Psoroptes cuniculi; Konzentration 0,0078 %): 24 Stunden
Vernichtung von 100 % der Milben nach Stunden (Psoroptes cuniculi; Konzentration 0,0625 bis 0,125 %): 6 Stunden
Vernichtung von 100 % der Milben nach Stunden (Psoroptes cuniculi; Konzentration 0,125 bis 0,5 %): 4 Stunden
selektive Toxizität gegen Räudemilben, dem Chlorophos überlegen (Psoroptes cuniculi; gegenüber Chlorophos): ~400 mal
LD50 [2]: 260 mg/kg
Löslichkeit in Wasser [3]: gut
Lagerbeständigkeit [4]: lagerbeständig
